Assay results: patent US20230416228A1 (Forkhead Biotherapeutics, Inc., priority 2020, published 2023)

Target: T1, human FOXO1 (constitutively active form Thr24Ala, Ser256Ala, Ser319Ala) (Homo sapiens, UniProt Q12778, S256A/S319A/T24A)
T1 construct: expressed in transfected cells; host or cells: HEK293 cells transfected with pcDNA3.1 plasmid
Experiment: FOXO1 inhibitor activity assay: cell-based transcriptional (luciferase) reporter assay in HEK293 cells
Conditions: HEK293 cells transfected with insulin response element firefly luciferase reporter, FOXO1 and Renilla luciferase; 10-point dose response 50 μM to 2.5 nM; 24 hours
Summary of the method: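 IC50 and maximal inhibition were fitted by 4-parameter logistic regression on normalized firefly/Renilla luciferase ratios. The 0% reference used RFP in place of FOXO1, and the 100% reference was DMSO-only with all plasmids.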

T1 sequence (Q12778 whole entry T24A/S256A/S319A): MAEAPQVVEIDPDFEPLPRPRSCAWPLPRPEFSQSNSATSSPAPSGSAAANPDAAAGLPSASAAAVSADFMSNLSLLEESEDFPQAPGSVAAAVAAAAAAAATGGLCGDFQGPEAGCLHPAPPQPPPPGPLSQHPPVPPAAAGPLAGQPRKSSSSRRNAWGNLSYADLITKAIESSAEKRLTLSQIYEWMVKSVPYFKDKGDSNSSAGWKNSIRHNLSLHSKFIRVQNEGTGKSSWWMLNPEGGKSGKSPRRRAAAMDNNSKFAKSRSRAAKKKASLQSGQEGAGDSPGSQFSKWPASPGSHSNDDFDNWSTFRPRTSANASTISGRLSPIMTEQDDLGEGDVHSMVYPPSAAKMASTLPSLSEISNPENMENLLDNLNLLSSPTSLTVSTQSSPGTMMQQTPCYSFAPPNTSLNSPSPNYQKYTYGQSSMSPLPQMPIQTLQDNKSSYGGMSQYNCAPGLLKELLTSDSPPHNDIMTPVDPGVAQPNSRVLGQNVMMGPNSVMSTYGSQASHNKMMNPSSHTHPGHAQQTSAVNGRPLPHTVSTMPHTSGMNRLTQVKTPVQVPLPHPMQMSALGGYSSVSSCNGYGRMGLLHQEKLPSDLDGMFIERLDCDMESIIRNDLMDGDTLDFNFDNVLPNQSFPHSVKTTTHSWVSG

| SMILES | IC50 [nM] |
| --- | --- |
| COc1cc(C(=O)Nc2cc(-c3nc4ccccc4[nH]3)[nH]n2)ccc1OCCO [Compound A-120, N-[5-(1H-benzimidazol-2-yl)-1H-pyrazol-3-yl]-4-(2-hydroxyethoxy)-3-methoxy-benzamide] | 300 to 1000 |
| O=C(Nc1cc(-c2nc3cc(Cl)ccc3[nH]2)[nH]n1)c1ccc(OCCO)c(Cl)c1 [Compound A-121, 3-chloro-N-[5-(5-chloro-1H-benzimidazol-2-yl)-1H-pyrazol-3-yl]-4-(2-hydroxyethoxy)benzamide] | 100 to 300 |
| O=C(Nc1cc(-c2nc3cc(C(F)(F)F)ccc3[nH]2)[nH]n1)c1ccc(OCCO)c(Cl)c1 [Compound A-123, 3-chloro-4-(2-hydroxyethoxy)-N-[5-[5-(trifluoromethyl)-1H-benzimidazol-2-yl]-1H-pyrazol-3-yl]benzamide formic acid] | < 100 |
| COc1ccc(C(=O)Nc2cc(-c3nc4cc(F)ccc4[nH]3)n(C)n2)cc1Cl [Compound A-126, 3-chloro-N-[5-(5-fluoro-1H-benzimidazol-2-yl)-1-methyl-pyrazol-3-yl]-4-methoxy-benzamide] | < 100 |
| COc1cc(F)c2[nH]c(-c3cc(NC(=O)c4ccc(OC)c(Cl)c4)n[nH]3)nc2c1 [Compound A-127, 3-chloro-N-[5-(7-fluoro-5-methoxy-1H-benzimidazol-2-yl)-1H-pyrazol-3-yl]-4-methoxy-benzamide] | < 100 |
| COCCOc1ccc(C(=O)Nc2cc(-c3nc4ccccc4[nH]3)[nH]n2)cc1C#N [Compound A-129, N-[5-(1H-benzimidazol-2-yl)-1H-pyrazol-3-yl]-3-cyano-4-(2-methoxyethoxy)benzamide] | 100 to 300 |
| O=C(Nc1cc(-c2nc3ccccc3[nH]2)[nH]n1)c1ccc(OCCO)c(F)c1 [Compound A-130, N-[5-(1H-benzimidazol-2-yl)-1H-pyrazol-3-yl]-3-fluoro-4-(2-hydroxyethoxy)benzamide] | 300 to 1000 |
| COC1CN(c2ccc(C(=O)Nc3cc(-c4nc5cccc(F)c5[nH]4)[nH]n3)cn2)C1 [Compound A-131, N-[5-(7-fluoro-1H-benzimidazol-2-yl)-1H-pyrazol-3-yl]-6-(3-methoxy-azetidin-1-yl)pyridine-3-carboxamide] | 100 to 300 |
| Cn1nc(NC(=O)c2ccc(N3CCC(O)CC3)nc2)cc1-c1nc2cccc(F)c2[nH]1 [Compound A-134] | 100 to 300 |
| COC1CN(c2ccc(C(=O)Nc3cc(-c4nc5cccc(F)c5[nH]4)n(C)n3)cn2)C1 [Compound A-137, N-[5-(4-fluoro-1H-benzimidazol-2-yl)-1-methyl-pyrazol-3-yl]-6-(3-methoxyazetidin-1-yl)pyridine-3-carboxamide] | 300 to 1000 |
| O=C(NCc1ccccc1)Nc1cc(-c2nc3ccccc3[nH]2)[nH]n1 [Compound A-138, 1-[5-(1H-benzimidazol-2-yl)-1H-pyrazol-3-yl]-3-benzyl-urea] | > 1000 |
| O=C(Nc1ccccc1)Nc1cc(-c2nc3ccccc3[nH]2)[nH]n1 [Compound A-140, 1-[5-(1H-benzimidazol-2-yl)-1H-pyrazol-3-yl]-3-phenyl-urea] | > 1000 |
| CCOC(=O)[C@@H]1CCCN1c1ccc(C(=O)Nc2cc(-c3nc4cc(F)ccc4[nH]3)n(C)n2)cn1 [Compound A-145, ethyl (25)-1-[5-[[5-(5-fluoro-1H-benzimidazol-2-yl)-1-methyl-pyrazol-3-yl]carbamoyl]-2-pyridyl]pyrrolidine-2-carboxylate] | > 1000 |
| CCOC(=O)[C@@H]1CCCN1c1ccc(C(=O)Nc2cc(-c3nc4cccc(F)c4[nH]3)n(C)n2)cn1 [Compound A-147, ethyl (2S)-1-[5-[[5-(4-fluoro-1H-benzimidazol-2-yl)-1-methyl-pyrazol-3-yl]carbamoyl]-2-pyridyl]pyrrolidine-2-carboxylate] | > 1000 |
| Cn1nc(NC(=O)c2ccc(N3CCOCC3)nc2)cc1-c1nc2cc(F)ccc2[nH]1 [Compound A-148, N-[5-(5-fluoro-1H-benzimidazol-2-yl)-1-methyl-pyrazol-3-yl]-6-morpholino-pyridine-3-carboxamide] | 100 to 300 |
| Cn1nc(NC(=O)c2ccc(N3CCN(CCO)CC3)nc2)cc1-c1nc2cc(F)ccc2[nH]1 [Compound A-150] | 100 to 300 |
| Cn1nc(NC(=O)c2ccc(N3CCC[C@H]3C(=O)O)nc2)cc1-c1nc2cc(F)ccc2[nH]1 [Compound A-151, (2S)-1-[5-[[5-(5-fluoro-1H-benzimidazol-2-yl)-1-methyl-pyrazol-3-yl]carbamoyl]-2-pyridyl]pyrrolidine-2-carboxylic acid] | > 1000 |
| O=C(Nc1cc(-c2nc3ccccc3[nH]2)[nH]n1)c1ccc(OCCO)c(C(F)(F)F)c1 [Compound A-152, N-[5-(1H-benzimidazol-2-yl)-1H-pyrazol-3-yl]-4-(2-hydroxyethoxy)-3-(trifluoromethyl)benzamide] | < 100 |

The next lines start with the values.

| IC50 [nM] | SMILES |
| --- | --- |
| 100 to 300 | O=C(Nc1cc(-c2nc3cccc(F)c3[nH]2)[nH]n1)c1ccc(OCCO)c(Cl)c1 [Compound A-119, 3-chloro-N-[5-(7-fluoro-1H-benzimidazol-2-yl)-1H-pyrazol-3-yl]-4-(2-hydroxyethoxy)benzamide] |
| < 100 | COc1ccc(C(=O)Nc2cc(-c3nc4ccccc4[nH]3)[nH]n2)cc1F [Compound A-124, N-[5-(1H-benzimidazol-2-yl)-1H-pyrazol-3-yl]-3-fluoro-4-methoxy-benzamide] |
| 100 to 300 | COc1ccc(C(=O)Nc2cc(-c3nc4cccc(F)c4[nH]3)n(C)n2)cc1Cl [Compound A-125, 3-chloro-N-[5-(7-fluoro-1H-benzimidazol-2-yl)-1-methyl-pyrazol-3-yl]-4-methoxy-benzamide] |
| 300 to 1000 | COC1CN(c2ccc(C(=O)Nc3cc(-c4nc5cc(F)ccc5[nH]4)n(C)n3)cn2)C1 [Compound A-128, N-[5-(5-fluoro-1H-benzimidazol-2-yl)-1-methyl-pyrazol-3-yl]-6-(3-methoxyazetidin-1-yl)pyridine-3-carboxamide] |
| < 100 | COC1CN(c2ccc(C(=O)Nc3cc(-c4nc5cc(F)ccc5[nH]4)[nH]n3)cn2)C1 [Compound A-132, N-[5-(5-fluoro-1H-benzimidazol-2-yl)-1H-pyrazol-3-yl]-6-(3-methoxy-azetidin-1-yl)pyridine-3-carboxamide] |
| 100 to 300 | CN(C)C1CCN(c2ccc(C(=O)Nc3cc(-c4nc5cc(F)ccc5[nH]4)n(C)n3)cn2)CC1 [Compound A-133, 6-[4-(dimethylamino)-1-piperidyl]-N-[5-(5-fluoro-1H-benzimidazol-2-yl)-1-methyl-pyrazol-3-yl]pyridine-3-carboxamide] |
| 100 to 300 | Cn1nc(NC(=O)c2ccc(N3CCOCC3)nc2)cc1-c1nc2cccc(F)c2[nH]1 [Compound A-135, N-[5-(4-fluoro-1H-benzimidazol-2-yl)-1-methyl-pyrazol-3-yl]-6-morpholino-pyridine-3-carboxamide] |
| 100 to 300 | Cn1nc(NC(=O)c2ccc(N3CCC(CO)CC3)nc2)cc1-c1nc2cccc(F)c2[nH]1 [Compound A-136, N-[5-(4-fluoro-1H-benzimidazol-2-yl)-1-methyl-pyrazol-3-yl]-6-[4-(hydroxymethyl)-1-piperidyl]pyridine-3-carboxamide] |
| 100 to 300 | CN(C)C1CCN(c2ccc(C(=O)Nc3cc(-c4nc5cccc(F)c5[nH]4)n(C)n3)cn2)CC1 [Compound A-139, 6-[4-(dimethylamino)-1-piperidyl]-N-[5-(4-fluoro-1H-benzimidazol-2-yl)-1-methyl-pyrazol-3-yl]pyridine-3-carboxamide] |
| 100 to 300 | O=C(Nc1cc(-c2nc3cc(F)ccc3[nH]2)[nH]n1)c1ccc(OCCO)c(Cl)c1 [Compound A-141, 3-chloro-N-[5-(5-fluoro-1H-benzimidazol-2-yl)-1H-pyrazol-3-yl]-4-(2-hydroxyethoxy)benzamide] |
| < 100 | COCCN1CCN(c2ccc(C(=O)Nc3cc(-c4nc5ccccc5[nH]4)[nH]n3)cn2)CC1 [Compound A-142, N-[5-(1H-benzimidazol-2-yl)-1H-pyrazol-3-yl]-6-[4-(2-methoxyethyl)-piperazin-1-yl]pyridine-3-carboxamide] |
| 100 to 300 | O=C(Nc1cc(-c2nc3ccccc3[nH]2)[nH]n1)c1ccc(N2CCN(CCO)CC2)nc1 [Compound A-143, N-[5-(1H-benzimidazol-2-yl)-1H-pyrazol-3-yl]-6-[4-(2-hydroxyethyl)-piperazin-1-yl]pyridine-3-carboxamide] |
| > 1000 | N#Cc1cc(C(=O)Nc2cc(-c3nc4ccccc4[nH]3)[nH]n2)ccc1OCCO [Compound A-144, N-[5-(1H-benzimidazol-2-yl)-1H-pyrazol-3-yl]-3-cyano-4-(2-hydroxy-ethoxy)benzamide] |
| > 1000 | CCOC(=O)[C@H]1CCCN1c1ccc(C(=O)Nc2cc(-c3nc4cc(F)ccc4[nH]3)n(C)n2)cn1 [Compound A-146, ethyl (2R)-1-[5-[[5-(5-fluoro-1H-benzimidazol-2-yl)-1-methyl-pyrazol-3-yl]carbamoyl]-2-pyridyl]pyrrolidine-2-carboxylate] |
| 100 to 300 | COCCN1CCN(c2ccc(C(=O)Nc3cc(-c4nc5cc(F)ccc5[nH]4)n(C)n3)cn2)CC1 [Compound A-149] |
| 100 to 300 | COC1CCN(c2ccc(C(=O)Nc3cc(-c4nc5cc(F)ccc5[nH]4)n(C)n3)cn2)CC1 [Compound A-153, N-[5-(5-fluoro-1H-benzimidazol-2-yl)-1-methyl-pyrazol-3-yl]-6-(4-methoxy-1-piperidyl)pyridine-3-carboxamide] |
| 100 to 300 | COCCN1CCN(c2ccc(C(=O)Nc3cc(-c4nc5cccc(F)c5[nH]4)n(C)n3)cn2)CC1 [Compound A-154] |
| > 1000 | Cn1nc(NC(=O)c2ccc(N3CCC[C@H]3C(=O)O)nc2)cc1-c1nc2cccc(F)c2[nH]1 [Compound A-155, (2S)-1-[5-[[5-(7-fluoro-1H-benzimidazol-2-yl)-1-methyl-pyrazol-3-yl]carbamoyl]-2-pyridyl]pyrrolidine-2-carboxylic acid] |
